What follows are compounds tested against PD-1/PD-L1 protein/protein interaction (Homo sapiens (Human), UniProt Q9NZQ7) (assay: PD-1/PD-L1 Homogeneous Time-Resolved Fluorescence (HTRF) binding assay). Conditions: recombinant human PD-L1 (19-238) His-tag, human PD-1 (25-167) Fc tag; 25° C., PBS pH 7.4.
Description: Example A. PD-1/PD-L1 Homogeneous Time-Resolved Fluorescence (HTRF) Binding Assay
The assays were conducted in a standard black 384-well polystyrene plate with a final volume of 20 μL. Inhibitors were first serially diluted in DMSO and then added to the plate wells before the addition of other reaction components. The final concentration of DMSO in the assay was 1%. The assays were carried out at 25° C. in the PBS buffer (pH 7.4) with 0.05% Tween-20 and 0.1% BSA. Recombinant human PD-L1 protein (19-238) with a His-tag at the C-terminus was purchased from AcroBiosystems (PD1-H5229). Recombinant human PD-1 protein (25-167) with Fc tag at the C-terminus was also purchased from AcroBiosystems (PD1-H5257). PD-L1 and PD-1 proteins were diluted in the assay buffer and 10 μL was added to the plate well. Plates were centrifuged and proteins were preincubated with inhibitors for 40 minutes. The incubation was followed by the addition of 10 μL of HTRF detection buffer supplemented with Europium cryptate-labeled anti-human IgG (PerkinElmer-AD0212) specific for Fc and anti-His antibody conjugated to SureLight®-Allophycocyanin (APC, PerkinElmer-AD0059H). After centrifugation, the plate was incubated at 25° C. for 60 min. before reading on a PHERAstar FS plate reader (665 nm/620 nm ratio). Final concentrations in the assay were […], 10 nM PD-L1, 1 nM europium anti-human IgG and 20 nM anti-His-Allophycocyanin. IC50 determination was performed by fitting the curve of percent control activity versus the log of the inhibitor concentration using the GraphPad Prism 5.0 software.

PD-1/PD-L1 protein/protein interaction, sequence (Q9NZQ7 19-238): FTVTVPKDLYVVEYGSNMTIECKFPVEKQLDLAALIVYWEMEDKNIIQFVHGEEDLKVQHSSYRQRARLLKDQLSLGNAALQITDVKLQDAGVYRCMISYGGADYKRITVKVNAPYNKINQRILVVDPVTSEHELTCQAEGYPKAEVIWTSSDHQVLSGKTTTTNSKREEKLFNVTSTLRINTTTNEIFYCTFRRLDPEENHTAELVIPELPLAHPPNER

| IC50 [nM] | SMILES |
| --- | --- |
| ≤ 10 | Cc1c(NC(=O)c2ccc(CNCCO)cn2)cccc1-c1cccc(-c2nc3c(Cl)cc(CNCCO)cn3n2)c1C [Example 1, N-(3′-(8-chloro-6-((2-hydroxyethylamino)methyl)-[1,2,4]triazolo[1,5-a]pyridin-2-yl)-2,2′-dimethylbiphenyl-3-yl)-5-((2-hydroxyethylamino)methyl)picolinamide] |
| ≤ 10 | Cc1c(-c2nc3c(Cl)cc(CNCCO)cn3n2)cccc1-c1cccc(NC(=O)c2ccc(CNCCO)cn2)c1Cl [Example 2, N-(2-chloro-3′-(8-chloro-6-((2-hydroxyethylamino)methyl)-[1,2,4]triazolo[1,5-a]pyridin-2-yl)-2′-methylbiphenyl-3-yl)-5-((2-hydroxyethylamino)methyl)picolinamide] |
| ≤ 10 | Cc1c(-c2nc3c(C#N)cc(CNCCO)cn3n2)cccc1-c1cccc(NC(=O)c2ccc(CNCCO)cn2)c1Cl [Example 3, N-(2-chloro-3′-(8-cyano-6-((2-hydroxyethylamino)methyl)-[1,2,4]triazolo[1,5-a]pyridin-2-yl)-2′-methylbiphenyl-3-yl)-5-((2-hydroxyethylamino)methyl)picolinamide] |
| ≤ 10 | Cc1c(-c2nc3c(Cl)cc(CNCCO)cn3n2)cccc1-c1cccc(-c2nc3c(s2)CNCC3)c1C [Example 4, 2-((8-chloro-2-(2,2′-dimethyl-3′-(4,5,6,7-tetrahydrothiazolo[5,4-c]pyridin-2-yl)biphenyl-3-yl)-[1,2,4]triazolo[1,5-a]pyridin-6-yl)methylamino)ethanol] |

Source: patent US10793565B2, “Heterocyclic compounds as immunomodulators” (Incyte Corporation, priority 2016, dated 2020)
